# According to paper PMC5216056 (Nature Communications, 2017):
# Values joined by “and” are separate entries in the source; they are usually repeats but may differ in a detail not shown here. Equal entries are not always repeated. Where two headings read alike, the source gives them in different places.
# What was measured:
# hCB2R [1] = target: T1, hCB2R (Homo sapiens, UniProt P34972); test: cell-based; assay type: cell-based; parameters: expressed in transfected cells; host or cells: Flp-In-293 (Invitrogen #R750-07), pcDNA5/FRT; conditions: for Emax: read-out: Emax ± SEM pERK hCB2R
# [2] = test system: AEA reuptake in HaCaT cells; test: cells; assay type: cell-based, human; conditions: for IC50: read-out: AEA reuptake IC50 (95% CI) HaCaT cells; for AEA reuptake Efficacy (% inhibition) HaCaT cells: from dose-response; for AEA reuptake % inhibition, effect at 10 µM, HaCaT cells / inhibition at 10 µM: 10 µM (values marked *); for inhibition at 10 µM: read-out: AEA reuptake % inhibition, effect at 10 µM, HaCaT cells
# mCB2R = mCB2R (Mus musculus, UniProt P47936); test: biochemical; assay type: biochemical; parameters: from tissue; host or cells: spleen of male C57BL/6J mice; conditions: for Emax: read-out: Emax cAMP mCB2R; for CB2R Selectivity cAMP (mouse): 10^(pEC50 CB2R-pEC50 CB1R)
# GR (h) = target: T2, GR (h) (Homo sapiens, UniProt P04150); test: CEREP panel; assay type: binding; conditions: for inhibition at 10 µM: read-out: % inhibition GR (h)
# T2 construct: CEREP (contract assay)
# T2 sequence (P04150 1-777): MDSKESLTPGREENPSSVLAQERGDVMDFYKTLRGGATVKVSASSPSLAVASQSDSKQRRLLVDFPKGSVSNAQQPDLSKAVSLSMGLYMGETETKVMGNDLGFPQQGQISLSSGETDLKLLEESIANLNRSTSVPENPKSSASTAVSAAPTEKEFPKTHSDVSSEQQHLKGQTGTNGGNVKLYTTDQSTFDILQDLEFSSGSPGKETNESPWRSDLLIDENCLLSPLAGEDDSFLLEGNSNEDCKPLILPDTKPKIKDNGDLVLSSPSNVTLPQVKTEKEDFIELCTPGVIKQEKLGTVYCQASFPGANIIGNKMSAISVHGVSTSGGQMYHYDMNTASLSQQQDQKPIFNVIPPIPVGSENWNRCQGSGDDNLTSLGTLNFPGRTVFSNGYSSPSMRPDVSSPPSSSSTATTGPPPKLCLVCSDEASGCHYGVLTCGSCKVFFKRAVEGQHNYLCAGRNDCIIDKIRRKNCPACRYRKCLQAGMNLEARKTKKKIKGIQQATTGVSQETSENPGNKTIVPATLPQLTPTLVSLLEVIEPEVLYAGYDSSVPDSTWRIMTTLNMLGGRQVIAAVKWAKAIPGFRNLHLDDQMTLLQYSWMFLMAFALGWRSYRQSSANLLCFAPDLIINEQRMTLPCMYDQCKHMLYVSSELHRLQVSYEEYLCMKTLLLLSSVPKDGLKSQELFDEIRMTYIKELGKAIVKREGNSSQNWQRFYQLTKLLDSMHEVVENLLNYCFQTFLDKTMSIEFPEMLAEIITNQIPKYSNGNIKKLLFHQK
# hCB2R [3] = target: T1, hCB2R; test: cell-based; assay type: cell-based; conditions: for Emax: read-out: Emax ± SEM β-AR recruitment hCB2R
# MAGL = target: T3, MAGL (Homo sapiens, UniProt Q99685); test: Biochemical MAGL activity assay; conditions: for inhibition at 10 µM: read-out: MAGL % inhibition at 10 µM ± SD
# T3 construct: expressed in transfected cells; host or cells: HEK293T (transient), membrane preparation
# T3 sequence (Q99685 1-303): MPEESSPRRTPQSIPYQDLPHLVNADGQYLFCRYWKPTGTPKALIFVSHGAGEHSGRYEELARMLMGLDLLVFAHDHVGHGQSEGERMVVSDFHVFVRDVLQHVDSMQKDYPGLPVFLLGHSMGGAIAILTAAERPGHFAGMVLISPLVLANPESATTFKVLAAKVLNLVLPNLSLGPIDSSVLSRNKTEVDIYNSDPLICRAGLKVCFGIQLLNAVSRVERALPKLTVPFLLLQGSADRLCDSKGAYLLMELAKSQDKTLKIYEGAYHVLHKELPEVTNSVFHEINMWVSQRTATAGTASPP
# Experimental: Cell culture and membrane preparation were performed as previously described. HEK293T cells (source: Dutch Cancer Institute) were grown in DMEM with stable glutamine and phenolred (PAA), 10% New Born Calf serum, penicillin and streptomycin. Cells were passaged every 2–3 days by resuspending in medium and seeding them to appropriate confluence. Membranes were prepared from transiently transfected HEK293T cells. One day prior to transfection 10^7 cells were seeded in a 15 cm petri dish. Cells were transfected by the addition of a 3:1 mixture of polyethyleneimine (60 μg) and plasmid DNA (20 μg) in 2 ml serum-free medium. The medium was refreshed after 24 h, and after 72 h the cells were harvested by suspending them in 20 ml medium. The suspension was centrifuged for 10 min at 1000, rpm, and the supernatant was removed. The cell pellet was stored at −80 °C until use. Cell pellets were thawed on ice and suspended in lysis buffer A (20 mM HEPES, 2 mM DTT, 0.25 M sucrose, 1 mM MgCl2, […] Benzonase). The suspension was homogenized by polytrone (3 × 7 s) and incubated for 30 min on ice. The suspension was subjected to ultracentrifugation (100,000 × g, 30 min, 4 °C, Beckman Coulter, Type Ti70 rotor) to yield the cytosolic fraction in the supernatant and the membrane fraction as a pellet. The pellet was resuspended in lysis buffer B (20 mM HEPES, 2 mM DTT). The protein concentration was determined with Quick Start Bradford assay (Biorad). The protein fractions were diluted to a total protein concentration of 1 mg ml^−1 and stored in small aliquots at −80 °C until use.
# Percentage of inhibition of reference ligands was determined in comparison with an untreated control. […] Fluorescence was measured in 5 min intervals for 60 min.
# hCB2R [4] = target: T1, hCB2R; test: biochemical; assay type: biochemical; parameters: expressed in transfected cells; host or cells: Flp-In-293 (Invitrogen #R750-07), pcDNA5/FRT; conditions: for Emax: read-out: Emax ± SEM GTPγS hCB2R
# [5] = antagonists in presence of EC80 of CP55940
# [6] = mouse spleen, read-out: pEC50 ± SEM cAMP mCB2R (converted)
# T1 sequence (P34972 whole entry): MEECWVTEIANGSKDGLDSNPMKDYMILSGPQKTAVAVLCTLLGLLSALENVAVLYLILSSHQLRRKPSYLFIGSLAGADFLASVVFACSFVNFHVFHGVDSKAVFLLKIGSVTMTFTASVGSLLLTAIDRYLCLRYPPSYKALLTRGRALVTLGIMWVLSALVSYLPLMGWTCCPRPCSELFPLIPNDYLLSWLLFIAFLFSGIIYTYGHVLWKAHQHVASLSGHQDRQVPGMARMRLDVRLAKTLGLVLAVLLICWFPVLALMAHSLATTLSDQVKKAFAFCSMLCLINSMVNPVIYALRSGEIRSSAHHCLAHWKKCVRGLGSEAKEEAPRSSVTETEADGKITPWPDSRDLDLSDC
# Chain of mCB2R (P47936 whole entry): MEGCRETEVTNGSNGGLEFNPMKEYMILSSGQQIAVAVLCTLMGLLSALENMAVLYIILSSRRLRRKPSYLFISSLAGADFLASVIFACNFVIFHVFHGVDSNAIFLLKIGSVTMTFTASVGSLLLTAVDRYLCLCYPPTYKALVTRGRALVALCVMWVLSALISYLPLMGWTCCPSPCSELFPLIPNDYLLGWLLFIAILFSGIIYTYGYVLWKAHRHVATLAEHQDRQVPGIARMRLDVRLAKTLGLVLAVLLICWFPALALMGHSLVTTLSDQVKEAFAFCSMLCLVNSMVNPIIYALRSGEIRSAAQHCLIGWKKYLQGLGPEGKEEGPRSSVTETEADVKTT
SMILES,"IC50 ([2]; Homo sapiens, HaCaT)",AEA reuptake Efficacy (% inhibition) HaCaT cells [2],Emax (mCB2R),Emax (hCB2R [3]),inhibition at 10 µM (MAGL),Emax (hCB2R [4]),"AEA reuptake % inhibition, effect at 10 µM, HaCaT cells [2]",IC50 [2],pEC50 ± SEM cAMP mCB2R (mCB2R; mouse spleen),% inhibition GR (h) (GR (h); 10 µM),MAGL % inhibition at 10 µM ± SD (MAGL),Emax ± SEM pERK hCB2R (hCB2R [1]),Emax ± SEM β-AR recruitment hCB2R (hCB2R [3]),Emax ± SEM GTPγS hCB2R (hCB2R [4]),pEC50 ± SEM GTPγS hCB2R (hCB2R [4]),pEC50 ± SEM pERK hCB2R (hCB2R [1]),Emax cAMP mCB2R (mCB2R),pEC50 ± SEM β-AR recruitment hCB2R (hCB2R [3]),further results
CCCCCCC(C)(C)c1cc(OC)c([C@@H]2C=C(CO)[C@@H]3C[C@H]2C3(C)C)c(OC)c1 [HU308],2210 nM,69%,56%,57 ± 10%,7 ± 13%,97 ± 12%,,,,,,,,,,,,,Emax (hCB2R [1]): 93 ± 2%; EC50 (mCB2R): 3.72 nM; inhibition at 10 µM (GR (h)): 4%
CCCn1c(C)c(C(=O)c2cccc3ccccc23)c2ccccc21 [JWH015],,,,,,,64%,> 5000 nM,7.64 ± 0.24,36%,0 ± 17%,,,,,,,,Emax cAMP mCB2R (mCB2R; normalized to 10 µM CP55940): 93%
Cc1c(C(=O)NN2CCCCC2)nn(-c2ccc(Cl)cc2Cl)c1-c1ccc(I)cc1 [AM251],,,,,,,,,,84%,0 ± 16%,-90 ± 3,-104 ± 8,-29 ± 2,,,,,
CCCCCCC(C)(C)c1cc(OC)c(C2=C[C@H]3CC[C@]2(CO)C3(C)C)c(OC)c1 [HU910],,,,,,,38%,> 10000 nM,8.98 ± 0.38,4%,20 ± 12%,,,,7.27 ± 0.12,,,,"pEC50 ± SEM pERK hCB2R (hCB2R [1]; [5]): 5.50 ± 0.10 and < 5.5; Emax ± SEM pERK hCB2R (hCB2R [1]; normalized to 10 µM CP55940): 104 ± 9%; Emax cAMP mCB2R (mCB2R; normalized to 10 µM CP55940): 67%; pEC50 ± SEM β-AR recruitment hCB2R (hCB2R [3]; [5]): 7.75 ± 0.03; Emax ± SEM β-AR recruitment hCB2R (hCB2R [3]; normalized to 10 µM CP55940, negative = inhibition of EC80 of CP55940): 48 ± 6%; Emax ± SEM GTPγS hCB2R (hCB2R [4]; normalized to 10 µM CP55940, negative = inverse agonism): 61 ± 13%"
CCCC(C)(C)c1ccc2c(c1)OC(C)(C)[C@@H]1CC=C(C)C[C@@H]21 [JWH133],,,,,,,39%,> 10000 nM,7.75 ± 0.33,7%,-20 ± 5%,96 ± 13,62 ± 11,61 ± 15,6.96 ± 0.35,6.19 ± 0.07,95,7.81 ± 0.22,CB2R Selectivity β-AR recruitment (hCB2R [3]): 275 fold; hCB2R Selectivity GTPγS (hCB2R [4]): 0.4
CN1CCCCC1Cn1cc(C(=O)c2cc([N+](=O)[O-])ccc2I)c2ccccc21 (racemic) [(rac)-AM1241],,80%,,,,,,4010 nM,7.03 ± 0.26,,-2 ± 17%,32 ± 12,14 ± 2,56 ± 9,6.89 ± 0.66,7.6 ± 0.88,-6,< 5,CB2R Selectivity pERK (hCB2R [1]): 339; hCB2R Selectivity GTPγS (hCB2R [4]): 0.03
CN1CCCC[C@H]1Cn1cc(C(=O)c2cc([N+](=O)[O-])ccc2I)c2ccccc21 [(S)-AM1241],,90%,,,,,,4490 nM,7.6 ± 0.3,10%,-4 ± 18%,60 ± 11,29 ± 8,47 ± 5,,6.92 ± 0.22,35,6.54 ± 0.44,CB2R Selectivity cAMP (mouse) (mCB2R): 148 fold
"CCCCC/C=C\C/C=C\C/C=C\C/C=C\CCCC(=O)OC(CO)CO [2-AG, 2-arachidonoyl glycerol]",> 5000 nM,,53%,80 ± 21%,3 ± 15%,57 ± 11%,,,,,,,,,,,,,"EC50 (hCB2R [1]; pEC50 ± SEM pERK hCB2R): 3890 nM and > 3160 nM; Emax (hCB2R [1]): 99 ± 11%; inhibition at 10 µM ([2]; Homo sapiens, HaCaT): 60%; EC50 (mCB2R; [6]): 70.8 nM; EC50 (hCB2R [3]): 2000 nM; EC50 (hCB2R [4]; read-out: pEC50 ± SEM GTPγS hCB2R (converted)): 646 nM"
CN1CCCC[C@@H]1Cn1cc(C(=O)c2cc([N+](=O)[O-])ccc2I)c2ccccc21 [(R)-AM1241],,,,,,,25%,> 5000 nM,6.17 ± 0.23,,-2 ± 18%,75 ± 9,29 ± 4,33 ± 2,7.40 ± 0.50,7.84 ± 0.29,-22,7.52 ± 0.43,CB2R Selectivity pERK (hCB2R [1]; 10^(pEC50 CB2R-pEC50 CB1R)): 151 fold; CB2R Selectivity cAMP (mouse) (mCB2R): 12 fold; CB2R Selectivity β-AR recruitment (hCB2R [3]; 10^(pEC50 CB2R-pEC50 CB1R)): 86 fold; hCB2R Selectivity GTPγS (hCB2R [4]; 10^(pEC50 CB2R-pEC50 CB1R)): 4 fold
Cc1c(C(=O)c2cccc3ccccc23)c2cccc3c2n1[C@H](CN1CCOCC1)CO3 [WIN55212-2],,,,,,,24%,> 5000 nM,8.37 ± 0.23,63%,3 ± 18%,,,,,,,,Emax cAMP mCB2R (mCB2R; normalized to 10 µM CP55940): 97%
"CCCCC/C=C\C/C=C\C/C=C\C/C=C\CCCC(=O)NCCO [Anandamide, N-arachidonoylethanolamine]",270 nM,86%,48%,38 ± 3%,-2 ± 19%,31 ± 4%,,,,,,,,,,,,,Emax (hCB2R [1]): 62 ± 2%; EC50 (mCB2R): 151 nM
Cc1c(C(=O)NN2CCCCC2)nn(-c2ccc(Cl)cc2Cl)c1-c1ccc(Cl)cc1 [SR141716A],,80%,,,4 ± 18%,,,,,,,,,,,,,,inhibition at 10 µM (GR (h); 10 µM): 43%
CCCCCCC(C)(C)c1ccc([C@@H]2C[C@H](O)CC[C@H]2CCCO)c(O)c1 [CP55940],> 10000 nM,,100%,80 ± 5%,5 ± 16%,95 ± 4%,,,,94%,,,,,,,,,"inhibition at 10 µM ([2]; Homo sapiens, HaCaT): 13%; EC50 (mCB2R; [6]): 0.0676 nM; inhibition at 10 µM (GR (h); 10 µM): 92%"
